Values quoted from earlier work, collected in article PMC11571109, “Covalent Inhibitors of S100A4 Block the Formation of a Pro-Metastasis Non-Muscle Myosin 2A Complex” (Journal of Medicinal Chemistry, 2024).

System: S100A4
Parameters: method as in PMID 20421509
Conditions: by inducing oligomerization; read-out: IC50 S100A4 inhibition; cited from earlier work

For `c1ccc2c(c1)Nc1ccccc1S2` [phenothiazine], the IC50 is listed as roughly 100 µM.
